The values that follow come from patent publication US8716324B2, “Tricyclic indeno-pyrrole derivatives as serotonin receptor modulators” (Athersys, Inc., priority 2004, dated 2014).

Sequence of human 5HT2c receptor (VSV Isoform) (P28335 33-458 I156V/N158S/I160V limits assumed): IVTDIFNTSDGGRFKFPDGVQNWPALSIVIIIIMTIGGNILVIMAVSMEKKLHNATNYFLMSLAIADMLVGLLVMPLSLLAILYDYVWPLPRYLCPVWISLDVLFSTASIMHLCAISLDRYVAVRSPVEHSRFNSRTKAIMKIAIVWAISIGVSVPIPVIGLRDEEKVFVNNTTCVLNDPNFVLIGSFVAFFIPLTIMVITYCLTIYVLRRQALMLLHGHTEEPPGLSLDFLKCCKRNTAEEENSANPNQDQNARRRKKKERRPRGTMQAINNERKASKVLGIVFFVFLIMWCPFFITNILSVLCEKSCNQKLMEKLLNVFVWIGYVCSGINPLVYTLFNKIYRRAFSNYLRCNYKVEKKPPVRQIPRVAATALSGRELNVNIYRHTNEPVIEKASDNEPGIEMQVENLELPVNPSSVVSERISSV

The assay addresses human 5HT2c receptor (VSV Isoform) (Homo sapiens, UniProt P28335, I156V/I160V/N158S). The experiment in a line: cell-based. To be noted: 5-HT2c EC50 (hVSV, μM).
`Cc1cc2c(cc1Cl)C1CNCC1C2C` (centres unmarked) [Example 23, 5-Chloro-6-methyl-8-methyl-1,2,3,3a,8,8a-hexahydroindeno[1,2-c]pyrrole]: the EC50 is below 1 µM. Then `Cc1ccc2c(c1)C(C)C1CNCC21` (single isomer, unassigned) [15, Enantiomer 2], with below 1 µM; and `CC1c2cc(Cl)c(Cl)cc2C2CNCC12` (single isomer, unassigned) [26, Enantiomer 2], with below 0.1 µM.

`Fc1cccc(F)c1-c1ccc2c(c1)CC1CNCC21` (centres unmarked) [Example 12, 6-(2,6-Difluorophenyl)-1,2,3,3a,8,8a-hexahydroindeno[1,2-c]pyrrole] showed an EC50 above 10 µM. With `Cc1cc2c(cc1Cl)C(C)C1CNCC21` (single isomer, unassigned) [21, Enantiomer 2] the figure was below 0.1 µM; with `COc1c(Cl)cc2c(c1Cl)C1CNCC1C2C` (single isomer, unassigned) [38, Enantiomer 1], below 1 µM; with `CC1c2cccc(F)c2C2CNCC12` (centres unmarked) [Example 17, 4-Fluoro-8-methyl-1,2,3,3a,8,8a-hexahydroindeno[1,2-c]pyrrole], below 10 µM. Then `CCOc1cc2c(cc1Cl)C(C)C1CNCC21` (single isomer, unassigned) [29, Enantiomer 2], with below 0.1 µM; and `CC1c2c(ccc(Cl)c2Cl)C2CNCC12` (centres unmarked) [Example 27, 6,7-Dichloro-8-methyl-1,2,3,3a,8,8a-hexahydroindeno[1,2-c]pyrrole], with below 0.1 µM. Take `CC1c2ccc(OCc3ccccc3F)cc2C2CNCC12` (single isomer, unassigned) [44, Enantiomer 2]: the EC50 was below 10 µM.

In the case of `Cc1cc2c(cc1Cl)C(C)C1CNCC21` (single isomer, unassigned) [21, Enantiomer 1], the EC50 is below 1 µM. With `Cc1cc2c(cc1Cl)C(C)C1CNCC21` (centres unmarked) [Example 21, 5-Methyl-6-chloro-8-methyl-1,2,3,3a,8,8a-hexahydroindeno[1,2-c]pyrrole] the figure was below 0.1 µM. Molecule `CC1c2ccc(O)cc2C2CNCC12` (single isomer, unassigned) [2, Enantiomer 2] had an EC50 below 0.1 µM. With `COc1cc2c(cc1OC)C1CNCC1C2C` (single isomer, unassigned) [36, Enantiomer 2] the figure was below 1 µM; with `COc1ccc2c(c1)C1CNCC1C2C` (single isomer, unassigned) [1, Enantiomer 2], below 1 µM; with `COc1ccc2c(c1Cl)C1CNCC1C2C` (single isomer, unassigned) [25, Enantiomer 2], below 1 µM.

In turn, `COc1c(Cl)cc2c(c1Cl)C1CNCC1C2C` (single isomer, unassigned) [38, Enantiomer 2] came in with an EC50 below 0.1 µM. With `CC1c2ccc(OCc3ccccc3)cc2C2CNCC12` (single isomer, unassigned) [43, Enantiomer 2] the figure was below 10 µM; with `CC1c2cc(Cl)c(OCc3ccc(F)cc3)cc2C2CNCC12` (single isomer, unassigned) [6, Enantiomer 2], below 1 µM. For `Cc1ccc2c(c1)C1CNCC1C2C` (centres unmarked) [Example 13, 5-Methyl-8-methyl-1,2,3,3a,8,8a-hexahydroindeno[1,2-c]pyrrole], the EC50 is below 1 µM. With `COc1cc2c(cc1Br)C(C)C1CNCC21` (single isomer, unassigned) [30, Enantiomer 2] the figure was below 0.01 µM.

Consider `CC1c2ccc(OCc3cccc(F)c3)cc2C2CNCC12` (single isomer, unassigned) [45, Enantiomer 2], for which the EC50 was below 10 µM. With `Cc1ccc2c(c1)C(C)C1CNCC21` (centres unmarked) [Example 15, 6-Methyl-8-methyl-1,2,3,3a,8,8a-hexahydroindeno[1,2-c]pyrrole] the figure was below 1 µM. With `CC1c2c(ccc(Cl)c2Cl)C2CNCC12` (single isomer, unassigned) [27, Enantiomer 2] the figure was below 0.1 µM. Then `CC1c2cc(F)ccc2C2CNCC12` (centres unmarked) [Example 19, 6-Fluoro-8-methyl-1,2,3,3a,8,8a-hexahydroindeno[1,2-c]pyrrole], with below 1 µM; and `COc1ccc2c(c1OC)C1CNCC1C2C` (single isomer, unassigned) [34, Enantiomer 1], with below 1 µM; and `COc1ccc2c(c1)C1CNCC1C2C` (centres unmarked) [Example 1, 5-Methoxy-8-methyl-1,2,3,3a,8,8a-hexahydroindeno[1,2-c]pyrrole], with above 10 µM. `COc1cc2c(cc1Cl)C(C)C1CNCC21` (centres unmarked) [Example 3, 5-Methoxy-6-chloro-8-methyl-1,2,3,3a,8,8a-hexahydroindeno[1,2-c]pyrrole] showed an EC50 below 0.1 µM. With `Cc1ccc2c(c1)C(C)C1CNCC21` (single isomer, unassigned) [15, Enantiomer 1] the figure was below 0.1 µM. Then `CC1c2cc(Cl)c(Cl)cc2C2CNCC12` (single isomer, unassigned) [26, Enantiomer 1], with below 1 µM; and `CC1c2cc(Cl)cc(Cl)c2C2CNCC12` (centres unmarked) [Example 28, 4,6-Dichloro-8-methyl-1,2,3,3a,8,8a-hexahydroindeno[1,2-c]pyrrole], with below 0.1 µM; and `COc1ccc2c(c1Cl)C1CNCC1C2O` (centres unmarked) [Example 54, 4-Chloro-5-methoxy-2,3,3a,8a-tetrahydro-1H-2-aza-cyclopenta[a]inden-8-ol], with below 1 µM.

One may read the EC50 as the concentration that produces a half-maximal response.
